Patent publication US20240116985A1, “STAPLED PEPTIDES AND METHODS THEREOF” (priority 2020, published 2024)
Read-outs that look alike come from different tables or passages of the source.

Legend:
[1] = target: T1, full-length beta-Catenin (Uniprot ID P35222) (Homo sapiens, UniProt P35222); experiment: Fluorescence polarization IC50 (beta-catenin / 5FAM-TCF4 10-53 competition); type: binding
T1 construct: 10 nM full-length beta-Catenin (Uniprot ID P35222)
T1 sequence (P35222 1-781): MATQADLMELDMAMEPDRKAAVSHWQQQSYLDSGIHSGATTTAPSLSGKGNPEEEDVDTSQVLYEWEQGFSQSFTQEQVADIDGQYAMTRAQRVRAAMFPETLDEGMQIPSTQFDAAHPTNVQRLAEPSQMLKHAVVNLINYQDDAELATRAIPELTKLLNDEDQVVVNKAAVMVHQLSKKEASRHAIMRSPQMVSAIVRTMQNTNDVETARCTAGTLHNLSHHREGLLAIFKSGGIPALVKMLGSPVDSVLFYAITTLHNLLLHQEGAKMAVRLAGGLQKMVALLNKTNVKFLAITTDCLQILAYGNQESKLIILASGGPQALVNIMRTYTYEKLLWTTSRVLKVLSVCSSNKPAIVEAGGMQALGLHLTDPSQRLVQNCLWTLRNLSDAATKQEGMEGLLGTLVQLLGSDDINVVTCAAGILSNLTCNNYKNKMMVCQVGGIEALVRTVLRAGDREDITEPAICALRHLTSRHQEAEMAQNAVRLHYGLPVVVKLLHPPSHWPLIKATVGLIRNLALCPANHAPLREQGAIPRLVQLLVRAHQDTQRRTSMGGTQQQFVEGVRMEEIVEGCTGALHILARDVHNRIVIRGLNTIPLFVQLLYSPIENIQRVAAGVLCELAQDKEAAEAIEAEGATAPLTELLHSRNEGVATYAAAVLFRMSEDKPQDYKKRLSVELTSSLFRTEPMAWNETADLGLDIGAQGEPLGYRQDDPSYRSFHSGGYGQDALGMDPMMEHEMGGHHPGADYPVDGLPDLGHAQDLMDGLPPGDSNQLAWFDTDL

[2] = CHI Log D procedure; type: physicochemical; conditions: for chromatographic logD: pH 7.4, CHI Log D; for CHI Log D: pH 7.4
[3] = fluorescence polarization, beta-catenin, read-out: FP EC50

SMILES	IC50 ([1]; read-out: beta-Catenin FP IC50) [nM]	chromatographic logD [2]	IC50 [1, 3] [nM]	CHI Log D [2]
CC(=O)N1CCC[C@]12CC=CCCCC1(CCCC=CCCCOC(=O)N3CC[C@@](C(=O)N[C@@H](Cc4ccsc4)C(=O)N[C@@H](Cc4csc5ccccc45)C(=O)N[C@@H](CCC(N)=O)C(=O)N[C@@H](CCCCNC(=O)CCc4cc(C(F)(F)F)cc(C(F)(F)F)c4)C(N)=O)(C3)NC(=O)[C@H](CC(N)=O)NC(=O)[C@H](Cc3ccccc3)NC(=O)[C@H](C)NC(=O)[C@H](C)NC(=O)[C@H](CC(=O)O)NC(=O)[C@H](CC(=O)O)NC1=O)NC(=O)[C@H](CC(C)(C)C)NC(=O)[C@H](CC(=O)O)NC2=O (stereo partly drawn) [I-902, Ac-PL3-Asp-Npg-B5-Asp-Asp-Ala-Ala-Phe-Asn-PyrS2-3Thi-BztA-Gln-[35CF3PhPr]Lys-NH2]	104	2.69	–	–
CC(=O)N1CCC[C@]12CC=CCCCC1(CCCC=CCCCCCC[C@@](C)(C(=O)N[C@@H](Cc3ccccc3Cl)C(=O)N[C@@H](Cc3csc4ccccc34)C(=O)N[C@@H](CCC(N)=O)C(N)=O)NC(=O)[C@H](Cc3ccccc3)NC(=O)[C@H](Cc3ccccc3)NC(=O)[C@H](C)NC(=O)[C@H](C)NC(=O)[C@H](CN(CC(=O)O)CC(F)(F)F)NC(=O)[C@H](CC(=O)O)NC1=O)NC(=O)[C@H](CC(C)(C)C)NC(=O)[C@H](CC(=O)O)NC2=O (stereo partly drawn) [I-931, Ac-PL3-Asp-Npg-B5-Asp-TfeGA-Ala-Ala-Phe-Phe-S8-2C1F-BztA-Gln-NH2]	221	3.36	–	–
CC(=O)N1CCC[C@]12CC=CCCCC1(CCCC=CCCCCCC[C@@](C)(C(=O)N[C@@H](Cc3ccccc3C(F)(F)F)C(=O)N[C@@H](Cc3csc4ccccc34)C(=O)N[C@@H](CCC(N)=O)C(N)=O)NC(=O)[C@H](CC(N)=O)NC(=O)[C@H](Cc3ccccc3)NC(=O)[C@H](C)NC(=O)[C@H](C)NC(=O)[C@H](CN(CC(=O)O)CC(F)(F)F)NC(=O)[C@H](CC(=O)O)NC1=O)NC(=O)[C@H](CC(C)(C)C)NC(=O)[C@H](CC(=O)O)NC2=O (stereo partly drawn) [I-934, Ac-PL3-Asp-Npg-B5-Asp-TfeGA-Ala-Ala-Phe-Asn-S8-2F3MeF-BztA-Gln-NH2]	69	2.82	–	–
C#CCOCCOCCOCCOCCC(=O)NCCCC[C@H](NC(=O)[C@H](CCC(N)=O)NC(=O)[C@H](Cc1csc2ccccc12)NC(=O)[C@H](Cc1ccsc1)NC(=O)[C@]12CCN(C1)C(=O)OCCCC=CCCCC1(CCCC=CC[C@]3(CCCN3C(C)=O)C(=O)N[C@@H](CC(=O)O)C(=O)N[C@@H](CC(C)(C)C)C(=O)N1)C(=O)N[C@@H](CC(=O)O)C(=O)N[C@@H](CC(=O)O)C(=O)N[C@@H](C)C(=O)N[C@@H](C)C(=O)N[C@@H](Cc1ccccc1)C(=O)N[C@@H](CC(N)=O)C(=O)N2)C(N)=O (stereo partly drawn) [I-938, Ac-PL3-Asp-Npg-B5-Asp-Asp-Ala-Ala-Phe-Asn-PyrS2-3Thi-BztA-Gln-[PropynPEG4]Lys-NH2]	9	2.16	–	–

Now from value to compound:

IC50 ([1]; read-out: beta-Catenin FP IC50) [nM]	chromatographic logD [2]	IC50 [1, 3] [nM]	CHI Log D [2]	SMILES
761	–	761	1.982	CC(=O)N1CCC[C@]12CC=CCCCC1(CCCC=CCCCOC(=O)N3CC[C@@](C(=O)N[C@@H](Cc4ccsc4)C(=O)N[C@@H](Cc4csc5ccccc45)C(=O)N[C@@H](C)C(N)=O)(C3)NC(=O)[C@H](CC(N)=O)NC(=O)[C@H](Cc3ccccc3)NC(=O)[C@H](C)NC(=O)[C@H](C)NC(=O)[C@H](CN(CC(=O)O)CC(F)(F)F)NC(=O)[C@H](CC(=O)O)NC1=O)NC(=O)[C@H](CC(C)(C)C)NC(=O)[C@H](CC(=O)O)NC2=O (stereo partly drawn) [I-944, Ac-PL3-Asp-Npg-B5-Asp-TfeGA-Ala-Ala-Phe-Asn-PyrS2-3Thi-BztA-Ala-NH2]
1080	–	1080	2.104	CC(=O)N1CCC[C@]12CC=CCCCC1(CCCC=CCCCOC(=O)N3CC[C@@](C(=O)N[C@@H](Cc4ccsc4)C(=O)N[C@@H](Cc4csc5ccccc45)C(=O)N[C@@H](C)C(N)=O)(C3)NC(=O)[C@H](CC(N)=O)NC(=O)[C@H](Cc3ccccc3)NC(=O)[C@H](C)NC(=O)[C@H](C)NC(=O)[C@H](CN(CC(=O)O)CC(F)(F)F)NC(=O)[C@H](CC(=O)O)NC1=O)NC(=O)[C@H](CC(C)(C)C)NC(=O)[C@H](CC(=O)O)NC2=O (stereo partly drawn) [I-945, Ac-PL3-Asp-Npg-B5-Asp-TfeGA-Ala-Ala-Phe-Asn-PyrS2-3Thi-BztA-Ala-NH2]
1210	–	1210	1.975	CC(=O)N1CCC[C@]12CC=CCCCC1(CCCC=CCCCOC(=O)N3CC[C@@](C(=O)N[C@@H](Cc4ccsc4)C(=O)N[C@@H](Cc4csc5ccccc45)C(=O)N[C@@H](Cc4ccc(O)cc4)C(N)=O)(C3)NC(=O)[C@H](CC(N)=O)NC(=O)[C@H](Cc3ccccc3)NC(=O)[C@H](C)NC(=O)[C@H](C)NC(=O)[C@H](CN(CC(=O)O)CC(F)(F)F)NC(=O)[C@H](CC(=O)O)NC1=O)NC(=O)[C@H](CC(C)(C)C)NC(=O)[C@H](CC(=O)O)NC2=O (stereo partly drawn) [I-952, Ac-PL3-Asp-Npg-B5-Asp-TfeGA-Ala-Ala-Phe-Asn-PyrS2-3Thi-BztA-Tyr-NH2]
407	–	407	2.046	CC(=O)N1CCC[C@]12CC=CCCCC1(CCCC=CCCCOC(=O)N3CC[C@@](C(=O)N[C@@H](Cc4ccsc4)C(=O)N[C@@H](Cc4csc5ccccc45)C(=O)N[C@@H](CO)C(N)=O)(C3)NC(=O)[C@H](Cc3ccccc3)NC(=O)[C@H](Cc3ccccc3)NC(=O)[C@H](C)NC(=O)[C@H](C)NC(=O)[C@H](CN(CC(=O)O)CC(F)(F)F)NC(=O)[C@H](CC(=O)O)NC1=O)NC(=O)[C@H](CC(C)(C)C)NC(=O)[C@H](CC(=O)O)NC2=O (stereo partly drawn) [I-962, Ac-PL3-Asp-Npg-B5-Asp-TfeGA-Ala-Ala-Phe-Phe-PyrS2-3Thi-BztA-Ser-NH2]
402	–	402	2.117	CC(=O)N1CCC[C@]12CC=CCCCC1(CCCC=CCCCOC(=O)N3CC[C@@](C(=O)N[C@@H](Cc4ccsc4)C(=O)N[C@@H](Cc4csc5ccccc45)C(=O)N[C@@H](CO)C(N)=O)(C3)NC(=O)[C@H](Cc3ccccc3)NC(=O)[C@H](Cc3ccccc3)NC(=O)[C@H](C)NC(=O)[C@H](C)NC(=O)[C@H](CN(CC(=O)O)CC(F)(F)F)NC(=O)[C@H](CC(=O)O)NC1=O)NC(=O)[C@H](CC(C)(C)C)NC(=O)[C@H](CC(=O)O)NC2=O (stereo partly drawn) [I-963, Ac-PL3-Asp-Npg-B5-Asp-TfeGA-Ala-Ala-Phe-Phe-PyrS2-3Thi-BztA-Ser-NH2]
1360	–	1360	1.853	CCN(CC(=O)O)C[C@@H]1NC(=O)[C@H](CC(=O)O)NC(=O)C2(CCCC=CCCCOC(=O)N3CC[C@@](C(=O)N[C@@H](Cc4ccsc4)C(=O)N[C@@H](Cc4csc5ccccc45)C(=O)N[C@@H](CCC(N)=O)C(N)=O)(C3)NC(=O)[C@H](Cc3ccccc3)NC(=O)[C@H](Cc3ccccc3)NC(=O)[C@H](C)NC(=O)[C@H](C)NC1=O)CCCC=CC[C@]1(CCCN1C(C)=O)C(=O)N[C@@H](CC(=O)O)C(=O)N[C@@H](CC(C)(C)C)C(=O)N2 (stereo partly drawn) [I-970, Ac-PL3-Asp-Npg-B5-Asp-EtGA-Ala-Ala-Phe-Phe-PyrS2-3Thi-BztA-Gln-NH2]
112	–	112	1.745	CC(=O)N1CCC[C@]12CC=CCCCC1(CCCC=CCCCOC(=O)N3CC[C@@](C(=O)N[C@@H](Cc4ccsc4)C(=O)N[C@@H](Cc4csc5ccccc45)C(=O)N[C@@H](CCC(N)=O)C(N)=O)(C3)NC(=O)[C@H](CO)NC(=O)[C@H](Cc3ccccc3)NC(=O)[C@H](C)NC(=O)[C@H](C)NC(=O)[C@H](Cc3cccc(C(=O)O)c3)NC(=O)[C@H](CC(=O)O)NC1=O)NC(=O)[C@H](CC(C)(C)C)NC(=O)[C@H](CC(=O)O)NC2=O (stereo partly drawn) [I-978, Ac-PL3-Asp-Npg-B5-Asp-3COOHF-Ala-Ala-Phe-Ser-PyrS2-3Thi-BztA-Gln-NH2]
